Data published in patent publication US20190015395A1, “TACROLIMUS FOR TREATING TDP-43 PROTEINOPATHY” (CHRONOS THERAPEUTICS LIMITED, priority 2016, published 2019).

How the values were obtained:
[1] = test system: C. elegans expressing GFP-TDP-43(CTF) (C-terminal fragment of human TDP-43, aas 208-414) in the body wall muscle; test: C. elegans lifespan assay, strain expressing TDP-43 C-terminal fragment; type: in vivo; conditions: 10 μg/ml in the NGM agar, vs DMSO vehicle, p<0.005
Text: C-terminal fragments of TDP-43 are associated with pathology in ALS and FTD patients. In particular, proteolytic cleavage at Arg208 has been reported to generate a pathogenic C-terminal fragment (see Wang et al., 2013, J. Biol. Chem. 288(13):9049-57 and Igaz et al., 2009, J. Biol. Chem. 284(13):8516-24; the disclosures of which are incorporated herein by reference). Therefore, a transgenic C. elegans strain was generated that expresses the C-terminal fragment (CTF) of human TDP-43 (aas 208-414) in the body wall muscle, fused via a short linker region to the C-terminus of a GFP tag. Expression is under the control of the myo-3 promoter. […]
(§1) C. elegans cultures were synchronised by incubating an asynchronous culture in basic sodium hypochlorite solution to kill everything but the bleach-resistant mature eggs. […] From this point on, each ageing population was inspected daily and viability assessed by counting the number of dead worms.
(§2) The cumulative number of dead worms for each population was used to generate a survival/viability plot to determine chronological lifespan (CLS). Survival was analysed using the Kaplan-Meier log-rank survival analysis method, using the Online Application for Survival (OASIS; see http://sbi.postech.ac.kr/oasis). […]

[2] = test system: control (GFP-expressing) C. elegans; test: C. elegans lifespan assay, control strain expressing GFP only; type: in vivo; conditions: 10 μg/ml in the NGM agar, vs DMSO vehicle, p<0.01
Method: A control C. elegans strain was generated in the same background, in which the GFP reporter only is expressed under the control of the myo-3 promoter.
These strains were crossed with worms carrying a mutation in the bus-5 gene, which confers drug-sensitivity, to produce drug-sensitive strains expressing GFP alone (“GFP”) or expressing the GFP-TDP-43 CTF fusion protein (“GFP-TDP-43(CTF)”).
as §1, with “eggs. Approximately 300 eggs were added on to agar plates and then allowed to hatch and develop (to produce approximately 200 worms) in the presence of the test compound (or vehicle) and bacterial food source.” for “eggs.”
as §2

TDP-43(Q331K) mice = test: Rotarod testing of TDP-43(Q331K) transgenic mice; type: in vivo, mouse
TNF-α = test: Blood TNF-α levels in healthy human volunteers; type: in vivo
Method: (§3) A hard gelatine capsule was filled with the following composition:
(§4) One capsule as above containing 0.3 mg tacrolimus was administered daily to healthy human volunteers for three successive days. […] Similarly, no change in TNF-α levels occurred as a result of administering 0.6 mg daily of tacrolimus to healthy volunteers. The average trough level of tacrolimus (level after 24 hours of administration of each dose) observed was approximately 220 pg/mL.

[3] = Tacrolimus blood levels in healthy human volunteers after capsule; type: in vivo
Method: as §3, §4

[4] = in vivo, 2 mg/kg/day
Method: Based on pharmacokinetic analysis, a tacrolimus dose of 2 mg/kg/day in the mouse is believed to correspond to a human oral dose of about 0.33-0.44 mg/day oral for a 70 kg person.

SMILES: C=CC[C@@H]1/C=C(\C)C[C@H](C)C[C@H](OC)[C@H]2O[C@@](O)(C(=O)C(=O)N3CCCC[C@H]3C(=O)O[C@H](/C(C)=C/[C@@H]3CC[C@@H](O)[C@H](OC)C3)[C@H](C)[C@@H](O)CC1=O)[C@H](C)C[C@@H]2OC [tacrolimus]
- lifespan (survival) of worms expressing the TDP-43 C-terminal fragment [1]: partially rescuing the lifespan deficit
- lifespan (survival) of worms expressing the TDP-43 C-terminal fragment ([1]; listed as Tacrolimus): significant increase in lifespan
- lifespan (survival) of control GFP-expressing worms [2]: increasing the lifespan
- lifespan (survival) of control GFP-expressing worms ([2]; listed as Tacrolimus): significant increase in lifespan
- rotarod latency / decline in motor function (TDP-43(Q331K) mice; 0.25 mg/kg per day p.o., 60 weeks from 3 weeks of age, vs vehicle): delays the progression of motor decline
- rotarod latency / decline in motor function (TDP-43(Q331K) mice; 0.25 mg/kg per day p.o., 60 weeks from 3 weeks of age, vs vehicle, listed as Tacrolimus): delays the progression of the decline in rotarod performance
- rotarod latency / decline in motor function (TDP-43(Q331K) mice; 1.25 mg/kg per day p.o., 60 weeks from 3 weeks of age, vs vehicle): delays the progression of motor decline
- rotarod latency / decline in motor function (TDP-43(Q331K) mice; 1.25 mg/kg per day p.o., 60 weeks from 3 weeks of age, vs vehicle, listed as Tacrolimus): delays the progression of the decline in rotarod performance
- rotarod latency / decline in motor function (TDP-43(Q331K) mice; 2.5 mg/kg per day p.o., 60 weeks from 3 weeks of age, vs vehicle): delays the progression of motor decline
- rotarod latency / decline in motor function (TDP-43(Q331K) mice; 2.5 mg/kg per day p.o., 60 weeks from 3 weeks of age, vs vehicle, listed as Tacrolimus): delays the progression of the decline in rotarod performance
- change in blood TNF-α levels (TNF-α; 0.3 mg capsule daily for three successive days): No significant changes
- change in TNF-α levels (TNF-α; 0.6 mg daily): no change
- average peak level ([3]; 0.3 mg capsule daily for three days, healthy volunteers): approximately 3700 pg/mL
- expected trough level ([3]; two capsules simultaneously, single dose of 0.6 mg): about 440 pg/mL
- human oral dose corresponding to the mouse dose [4]: 0.33 to 0.44 mg/day

SMILES: Nc1nc2ccc(OC(F)(F)F)cc2s1 [riluzole]
- rotarod latency / decline in motor function (TDP-43(Q331K) mice; 10 mg/kg p.o. per day in water, up to 60 weeks, vs water-treated control): delays the progression of the decline in rotarod performance
